The values that follow come from patent publication US12227520B2 (priority 2019, dated 2025).

For one series, the system named is HIV-1 (IIIB). Put plainly: Antiviral assay in MT-4 cells (HIV MT-4 antiviral assay). The class given is cell-based. The settings on record: Human immunodeficiency virus 1, IIIB, MT4, 120 h, HIV-1 (IIIB) in MT-4 cells, 5 days incubation; read-out: EC50. Summed up: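 Read-out is CellTiter-Glo chemiluminescence after 5-day culture at 37° C, giving protection of MT-4 cells from HIV-1 IIIB cytopathicity. Compounds tested in 1:3 dilution series in complete RPMI; controls were no drug, mock infection and 5 μM AZT.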

A short description of series [1]: Cytotoxicity assay in MT-4 cells. The class given is cell-based, human. The settings on record: human, uninfected MT-4 cells, 5 days incubation; read-out: CC50. Summed up:
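For cytotoxicity, uninfected MT-4 cells were incubated with compounds 5 days at 37 °C, with 10 μM puromycin marking base cytotoxicity. Parallel plates used HIV-1 IIIB-infected (1:250 stock dilution) or mock cells with 5 μM AZT and no-drug controls. Read-out: CellTiter-Glo chemiluminescence.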

A further series concerns pLai RLuc reporter virus. Put plainly: microbe, parasite or virus in culture. Conditions: Human immunodeficiency virus 1, 72 h. The series is classed as cell-based, HIV. A digest of the protocol: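 Read-out is Renilla luciferase after 72 h at 37 °C in MT-4 cells infected 2 h beforehand with pLai RLuc reporter virus; compounds diluted 1:3.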
[2] abbreviates: read-out: Antiviral Serum Shift RLuc 50% HS, HS/CCM (RPMI media, 10% FBS, 50% HS, 1% P/S), 72-h incubation.
Where [3] appears, read: read-out: Antiviral Serum Shift RLuc CCM, CCM (RPMI media, 10% FBS, 1% P/S), 72-h incubation.

Each structure is given as a SMILES string. Read-outs that look alike come from different tables or passages of the source.

As a reminder, the CC50 is the concentration that lowers cell viability or growth by half. For `C[C@]1(F)CCCN2C[C@@H]1n1cc(C(=O)NCc3c(F)cc(F)cc3F)c(=O)c(O)c1C2=O` [Example 61-1, (6S, 7S)-6-fluoro-12-hydroxy-6-methyl-1,11-dioxo-N-(2,4,6-trifluorobenzyl)-1,4,5,6,7,11-hexahydro-3H-2,7-methanopyrido[1,2-a][1,4]diazonine-10-carboxamide], the values for the EC50 in the series with HIV-1 (IIIB), with pLai RLuc reporter virus (setting [2]) and in the series on pLai RLuc reporter virus (setting [3]) were 1.85 nM, 72 nM and 0.206 nM, respectively. Also, in series [1], the half-maximal cytotoxic concentration (CC50) at 5 days came to 10300 nM.
The like results for `C[C@@]1(F)CCCN2C[C@@H]1n1cc(C(=O)NCc3c(F)cc(F)cc3F)c(=O)c(O)c1C2=O` [Example 61-2, (6R, 7S)-6-fluoro-12-hydroxy-6-methyl-1,11-dioxo-N-(2,4,6-trifluorobenzyl)-1,4,5,6,7,11-hexahydro-3H-2,7-methanopyrido[1,2-a][1,4]diazonine-10-carboxamide] were, in that order, 2.51 nM, 13.8 nM, 0.142 nM and 16900 nM.
As to `O=C(NCc1ccc(F)c(Cl)c1Cl)c1cn2c(c(O)c1=O)C(=O)N1CCCC[C@H]2C1` [Example 62, (7S)—N-(2,3-dichloro-4-fluorobenzyl)-12-hydroxy-1,11-dioxo-1,4,5,6,7,11-hexahydro-3H-2,7-methanopyrido[1,2-a][1,4]diazonine-10-carboxamide], the values for the EC50 with HIV-1 (IIIB), with pLai RLuc reporter virus (setting [2]) and in the series on pLai RLuc reporter virus (setting [3]) were 1.27 nM, 4.22 nM and 0.292 nM, respectively. In addition, the cytotoxic concentration (CC50) at 5 days in series [1] came to 3460 nM.
The corresponding values for `O=C(NCc1ccc(F)cc1F)c1cn2c(c(O)c1=O)C(=O)N1CCC[C@@H]3C[C@]32C1` [Example 65-1, (1aR,11aR)—N-(2,4-difluorobenzyl)-7-hydroxy-6,8-dioxo-1a,2,3,4,6,8-hexahydro-1H-5,11a-methanocyclopropa[h]pyrido[1,2-a][1,4]diazonine-9-carboxamide] are 1.73 nM, 28.5 nM, 0.297 nM and 8800 nM.
On to `O=C(NCc1ccc(F)cc1F)c1cn2c(c(O)c1=O)C(=O)N1CCC[C@H]3C[C@@]32C1` [Example 65-2, (1aS,11aS)—N-(2,4-difluorobenzyl)-7-hydroxy-6,8-dioxo-1a,2,3,4,6,8-hexahydro-1H-5,11a-methanocyclopropa[h]pyrido[1,2-a][1,4]diazonine-9-carboxamide], for which the results for the EC50 in the series on HIV-1 (IIIB), in the series with pLai RLuc reporter virus (setting [2]) and in the series on pLai RLuc reporter virus (setting [3]) were 1.66 nM, 3.47 nM and 0.341 nM, respectively. Besides, the cytotoxic concentration (CC50) at 5 days in series [1] amounted to 8820 nM.
The like results for `O=C(NCc1c(F)cc(F)cc1F)c1cn2c(c(O)c1=O)C(=O)N1CCC[C@@H]3C[C@]32C1` [Example 66-1, (1aR,11aR)—N-(2,4,6-trifluorobenzyl)-7-hydroxy-6,8-dioxo-1a,2,3,4,6,8-hexahydro-1H-5,11a-methanocyclopropa[h]pyrido[1,2-a][1,4]diazonine-9-carboxamide] were, in that order, 1.76 nM, 20.3 nM, 0.226 nM and 11100 nM.
`O=C(NCc1c(F)cc(F)cc1F)c1cn2c(c(O)c1=O)C(=O)N1CCC[C@H]3C[C@@]32C1` [Example 66-2, (1aS,11aS)—N-(2,4,6-trifluorobenzyl)-7-hydroxy-6,8-dioxo-1a,2,3,4,6,8-hexahydro-1H-5,11a-methanocyclopropa[h]pyrido[1,2-a][1,4]diazonine-9-carboxamide]: the values for the EC50 in the series with HIV-1 (IIIB), in the series on pLai RLuc reporter virus (setting [2]) and in the series with pLai RLuc reporter virus (setting [3]) were 1.68 nM, 4.55 nM and 0.294 nM, respectively. The cytotoxic concentration (CC50) at 5 days in series [1] came out at 10400 nM.
Regarding `O=C(NCc1ccc(F)c(Cl)c1F)c1cn2c(c(O)c1=O)C(=O)N1CC2CCc2cccc(F)c21` (stereo not drawn) [Example 67, N-(3-chloro-2,4-difluorobenzyl)-4-fluoro-7-hydroxy-6,8-dioxo-6,8,13,14-tetrahydro-12H-5,12-methanobenzo[e]pyrido[1,2-a][1,4]diazonine-9-carboxamide], the values for the EC50 in the series with HIV-1 (IIIB), in the series on pLai RLuc reporter virus (setting [2]) and in the series on pLai RLuc reporter virus (setting [3]) were 2.44 nM, 1.49 nM and 0.437 nM, respectively. Moreover, the 50% cytotoxic concentration (CC50) at 5 days in series [1] was determined as 23900 nM.
Turning to `O=C(NCc1ccc(F)c(Cl)c1F)c1cn2c(c(O)c1=O)C(=O)N1CC2CCc2cc(F)ccc21` (stereo not drawn) [Example 68, N-(3-chloro-2,4-difluorobenzyl)-2-fluoro-7-hydroxy-6,8-dioxo-6,8,13,14-tetrahydro-12H-5,12-methanobenzo[e]pyrido[1,2-a][1,4]diazonine-9-carboxamide], the EC50 was found to be 1.2 nM in the series on HIV-1 (IIIB), 1.17 nM in the series on pLai RLuc reporter virus (setting [2]) and 0.279 nM with pLai RLuc reporter virus (setting [3]). Besides, in series [1], the 50% cytotoxic concentration (CC50) at 5 days is 3580 nM.
Take `O=C(NCc1ccc(F)c(Cl)c1F)c1cn2c(c(O)c1=O)C(=O)N1CC2CCc2cc(F)c(F)cc21` (stereo not drawn) [Example 69, N-(3-chloro-2,4-difluorobenzyl)-2,3-difluoro-7-hydroxy-6,8-dioxo-6,8,13,14-tetrahydro-12H-5,12-methanobenzo[e]pyrido[1,2-a][1,4]diazonine-9-carboxamide]: the EC50 amounted to 1.95 nM in the series on HIV-1 (IIIB), 1.06 nM with pLai RLuc reporter virus (setting [2]) and 0.199 nM in the series with pLai RLuc reporter virus (setting [3]). The 50% cytotoxic concentration (CC50) at 5 days in series [1] is 36700 nM.
Take `O=C(NCc1c(F)cc(F)cc1F)c1cn2c(c(O)c1=O)C(=O)N1Cc3ccccc3C[C@H]2C1` [Example 70, (6S)-1-hydroxy-2,14-dioxo-N-(2,4,6-trifluorobenzyl)-2,7,12,14-tetrahydro-6H-6,13-methanobenzo[f]pyrido[1,2-a][1,4]diazonine-3-carboxamide]: the EC50 in the series with HIV-1 (IIIB) stood at 1.41 nM; with pLai RLuc reporter virus (setting [2]), 1.32 nM; in the series on pLai RLuc reporter virus (setting [3]), 0.322 nM. Also, the 50% cytotoxic concentration (CC50) at 5 days in series [1] worked out at 13300 nM.
The like results for `O=C(NCc1ccc(F)cc1F)c1cn2c(c(O)c1=O)C(=O)N1Cc3ccccc3C[C@H]2C1` [Example 71, (6S)—N-(2,4-difluorobenzyl)-1-hydroxy-2,14-dioxo-2,7,12,14-tetrahydro-6H-6,13-methanobenzo[f]pyrido[1,2-a][1,4]diazonine-3-carboxamide] were, in that order, 2.14 nM, 1.66 nM, 0.302 nM and 15000 nM.
Consider `O=C(NCc1c(F)cc(F)cc1F)c1cn2c(c(O)c1=O)C(=O)N1CC[C@@H](F)C[C@H]2C1` [Example 73-1, (5R,7S)-5-fluoro-12-hydroxy-1,11-dioxo-N-(2,4,6-trifluorobenzyl)-1,4,5,6,7,11-hexahydro-3H-2,7-methanopyrido[1,2-a][1,4]diazonine-10-carboxamide], for which the EC50 in the series on HIV-1 (IIIB) came to 5.2 nM; in the series with pLai RLuc reporter virus (setting [2]) it was 0.897 nM; in the series on pLai RLuc reporter virus (setting [3]) it was 0.715 nM. Besides, the 50% cytotoxic concentration (CC50) at 5 days in series [1] was greater than 50000 nM.
For the compound `O=C(NCc1c(F)cc(F)cc1F)c1cn2c(c(O)c1=O)C(=O)N1CC[C@@H](F)C[C@@H]2C1` [Example 73-2, (5R, 7R)-5-fluoro-12-hydroxy-1,11-dioxo-N-(2,4,6-trifluorobenzyl)-1,4,5,6,7,11-hexahydro-3H-2,7-methanopyrido[1,2-a][1,4]diazonine-10-carboxamide], the EC50 was found to be 1.82 nM in the series with HIV-1 (IIIB), 0.919 nM with pLai RLuc reporter virus (setting [2]) and 0.283 nM with pLai RLuc reporter virus (setting [3]). Besides, in series [1], the cytotoxic concentration (CC50) at 5 days stood at 23100 nM.
In the case of `O=C(NCc1c(F)cc(F)c(Cl)c1F)c1cn2c(c(O)c1=O)C(=O)N1CCCC[C@H]2C1` [Example 74, (7S)—N-(3-chloro-2,4,6-trifluorobenzyl)-12-hydroxy-1,11-dioxo-1,4,5,6,7,11-hexahydro-3H-2,7-methanopyrido[1,2-a][1,4]diazonine-10-carboxamide], the EC50 in the series with HIV-1 (IIIB) amounted to 1.52 nM; in the series on pLai RLuc reporter virus (setting [2]), 13.8 nM; in the series with pLai RLuc reporter virus (setting [3]) it was 0.492 nM. The cytotoxic concentration (CC50) at 5 days in series [1] came to 7280 nM.
As to `CC[C@]1(O)CCCN2C[C@H]1n1cc(C(=O)NCc3ccc(F)cc3F)c(=O)c(O)c1C2=O` [Example 77, (6S,7R)—N-(2,4-difluorobenzyl)-6-ethyl-6,12-dihydroxy-1,11-dioxo-1,4,5,6,7,11-hexahydro-3H-2,7-methanopyrido[1,2-a][1,4]diazonine-10-carboxamide], the EC50 stood at 2.17 nM in the series with HIV-1 (IIIB), 2.13 nM in the series with pLai RLuc reporter virus (setting [2]) and 0.762 nM in the series with pLai RLuc reporter virus (setting [3]). Also, the CC50 at 5 days in series [1] amounted to 15100 nM.
For the compound `O=C1CC[C@H]2CN(C1)C(=O)c1c(O)c(=O)c(C(=O)NCc3c(F)cc(F)cc3F)cn12` [Example 78, (7S)-12-hydroxy-1,4,11-trioxo-N-(2,4,6-trifluorobenzyl)-1,4,5,6,7,11-hexahydro-3H-2,7-methanopyrido[1,2-a][1,4]diazonine-10-carboxamide], the EC50 worked out at 9.56 nM with HIV-1 (IIIB), 3.76 nM in the series with pLai RLuc reporter virus (setting [2]) and 1.93 nM in the series with pLai RLuc reporter virus (setting [3]). Also, in series [1], the half-maximal cytotoxic concentration (CC50) at 5 days was greater than 50000 nM.
Consider `O=C(NCc1c(F)cc(F)cc1F)c1cn2c(c(O)c1=O)C(=O)N1C[C@@H]2CCCc2ccccc21` [Example 80-1, (6S)-1-hydroxy-2,15-dioxo-N-(2,4,6-trifluorobenzyl)-2,6,7,8,9,15-hexahydro-6,14-methanobenzo[e]pyrido[1,2-a][1,4]diazecine-3-carboxamide], for which the results for the EC50 in the series with HIV-1 (IIIB), in the series on pLai RLuc reporter virus (setting [2]) and in the series on pLai RLuc reporter virus (setting [3]) were 2.24 nM, 0.651 nM and 0.348 nM, respectively. Besides, the CC50 at 5 days in series [1] was 10400 nM.
